Two compounds from US9099654B2, “Benzofluorene compound, emission materials and organic electroluminescent device” (JNC Corporation, priority 2006, dated 2015) can be followed below.

Structures are written as SMILES.

This data set can be described thus: Solubility in solvents at 25° C. (Table 1). The data set is classed as physicochemical.

In the case of `c1ccc(C2(c3ccccc3)c3cc(-c4ccc5ccccc5c4)ccc3-c3c2cc(-c2ccc4ccccc4c2)c2ccccc32)cc1` [Compound (1-13)], the “Solubility (25° C.) g/100 ml (ethyl acetate)” value was 1 g/100 ml and the “Solubility (25° C.) g/100 ml (toluene)” value amounted to 8 g/100 ml. In addition, the “solubility in the solvents compared with compound (2)” value (ethyl acetate and toluene, comparison in words) is given as “apparently more excellent in solubility in the solvents than the compound (2)”.

As for `c1ccc(C2(c3ccccc3)c3cc(-c4ccc5ccccc5c4)ccc3-c3ccc4cc(-c5ccc6ccccc6c5)ccc4c32)cc1` [Compound (2), 3,9-dinaphthalene-2-yl-11,11-diphenyl-11H-benzo[a]fluorene, reference compound], the “Solubility (25° C.) g/100 ml (ethyl acetate)” value is 0.2 g/100 ml and the “Solubility (25° C.) g/100 ml (toluene)” value is 0.9 g/100 ml.
